Laboratory results taken from ChEMBL document CHEMBL1201862, “PubChem BioAssay data set” (2004).
Calls of active or inactive are those of the source.

Assays:
[1] = target: SWI/SNF-related matrix-associated actin-dependent regulator of chromatin subfamily A member 2 (Homo sapiens, UniProt P51531); assay: Luminescence-based cell-based high throughput dose response assay to identify activators of the function of SWI/SNF related, matrix associated, actin dependent regulator of chromatin, subfamily a, member 2 (SMARCA2, BRM).; type: functional
Chain of SWI/SNF-related matrix-associated actin-dependent regulator of chromatin subfamily A member 2 (P51531 whole entry): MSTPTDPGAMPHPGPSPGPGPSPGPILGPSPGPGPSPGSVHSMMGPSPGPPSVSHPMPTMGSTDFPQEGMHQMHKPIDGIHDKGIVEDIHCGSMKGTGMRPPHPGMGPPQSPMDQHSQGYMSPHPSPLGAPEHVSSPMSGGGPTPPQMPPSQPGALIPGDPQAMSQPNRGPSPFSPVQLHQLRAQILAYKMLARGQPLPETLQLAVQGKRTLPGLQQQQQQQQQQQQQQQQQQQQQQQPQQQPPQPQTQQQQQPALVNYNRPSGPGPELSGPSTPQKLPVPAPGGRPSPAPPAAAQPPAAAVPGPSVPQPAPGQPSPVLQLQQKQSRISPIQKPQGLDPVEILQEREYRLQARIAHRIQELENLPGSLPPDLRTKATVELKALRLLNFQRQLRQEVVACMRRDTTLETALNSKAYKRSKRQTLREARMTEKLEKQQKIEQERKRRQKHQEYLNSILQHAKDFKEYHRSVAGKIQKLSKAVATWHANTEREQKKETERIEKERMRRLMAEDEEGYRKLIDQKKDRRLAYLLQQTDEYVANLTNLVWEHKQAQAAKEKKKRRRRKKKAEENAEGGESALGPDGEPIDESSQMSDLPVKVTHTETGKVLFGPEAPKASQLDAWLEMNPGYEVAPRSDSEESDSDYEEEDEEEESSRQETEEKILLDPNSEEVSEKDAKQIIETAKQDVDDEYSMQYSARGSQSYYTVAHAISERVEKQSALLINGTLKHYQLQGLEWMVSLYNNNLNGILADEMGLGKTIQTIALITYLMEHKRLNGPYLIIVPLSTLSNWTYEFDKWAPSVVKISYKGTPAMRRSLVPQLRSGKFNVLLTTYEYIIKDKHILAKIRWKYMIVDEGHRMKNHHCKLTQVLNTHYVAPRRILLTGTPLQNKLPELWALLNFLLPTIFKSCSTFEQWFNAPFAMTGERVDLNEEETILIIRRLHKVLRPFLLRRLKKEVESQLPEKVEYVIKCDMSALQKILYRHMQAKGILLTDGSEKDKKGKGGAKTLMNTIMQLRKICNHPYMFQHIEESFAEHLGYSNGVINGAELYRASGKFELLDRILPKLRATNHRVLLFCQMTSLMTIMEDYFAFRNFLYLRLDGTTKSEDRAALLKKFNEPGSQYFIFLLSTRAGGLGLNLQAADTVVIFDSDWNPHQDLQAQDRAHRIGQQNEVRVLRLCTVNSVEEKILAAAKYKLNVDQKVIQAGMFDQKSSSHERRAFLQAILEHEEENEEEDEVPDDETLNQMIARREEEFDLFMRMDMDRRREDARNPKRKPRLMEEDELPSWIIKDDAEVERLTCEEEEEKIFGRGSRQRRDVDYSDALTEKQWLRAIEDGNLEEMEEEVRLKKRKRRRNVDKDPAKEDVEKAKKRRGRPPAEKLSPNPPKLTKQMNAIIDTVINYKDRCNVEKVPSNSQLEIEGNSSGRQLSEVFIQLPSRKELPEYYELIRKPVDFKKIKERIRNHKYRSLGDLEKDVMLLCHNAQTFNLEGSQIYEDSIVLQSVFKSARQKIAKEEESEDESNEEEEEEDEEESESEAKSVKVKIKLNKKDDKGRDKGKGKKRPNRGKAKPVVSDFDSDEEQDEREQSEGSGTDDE

[2] = target: T1, Fructose-bisphosphate aldolase (Mycobacterium tuberculosis, UniProt P9WQA3); assay: Fluorescence-based biochemical high throughput dose response assay for inhibitors of the fructose-bisphosphate aldolase (FBA) of M. tuberculosis.; type: functional
T1 sequence (P9WQA3 whole entry): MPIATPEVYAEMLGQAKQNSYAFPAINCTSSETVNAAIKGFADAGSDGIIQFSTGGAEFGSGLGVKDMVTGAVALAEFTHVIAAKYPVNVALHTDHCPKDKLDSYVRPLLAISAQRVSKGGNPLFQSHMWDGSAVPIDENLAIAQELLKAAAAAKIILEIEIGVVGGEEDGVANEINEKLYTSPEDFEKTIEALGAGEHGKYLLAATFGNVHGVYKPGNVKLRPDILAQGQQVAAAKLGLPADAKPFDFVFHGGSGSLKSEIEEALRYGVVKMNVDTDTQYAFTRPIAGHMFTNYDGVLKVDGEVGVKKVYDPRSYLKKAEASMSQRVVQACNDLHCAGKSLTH

[3] = target: Intestinal-type alkaline phosphatase (Homo sapiens, UniProt P09923); assay: Dose Response confirmation of uHTS hits from a small molecule inhibitors of human intestinal alkaline phosphatase via a luminescent assay. [Related pubchem assays (depositor defined):AID2544, AID2574]; type: functional
Chain of Intestinal-type alkaline phosphatase (P09923 whole entry): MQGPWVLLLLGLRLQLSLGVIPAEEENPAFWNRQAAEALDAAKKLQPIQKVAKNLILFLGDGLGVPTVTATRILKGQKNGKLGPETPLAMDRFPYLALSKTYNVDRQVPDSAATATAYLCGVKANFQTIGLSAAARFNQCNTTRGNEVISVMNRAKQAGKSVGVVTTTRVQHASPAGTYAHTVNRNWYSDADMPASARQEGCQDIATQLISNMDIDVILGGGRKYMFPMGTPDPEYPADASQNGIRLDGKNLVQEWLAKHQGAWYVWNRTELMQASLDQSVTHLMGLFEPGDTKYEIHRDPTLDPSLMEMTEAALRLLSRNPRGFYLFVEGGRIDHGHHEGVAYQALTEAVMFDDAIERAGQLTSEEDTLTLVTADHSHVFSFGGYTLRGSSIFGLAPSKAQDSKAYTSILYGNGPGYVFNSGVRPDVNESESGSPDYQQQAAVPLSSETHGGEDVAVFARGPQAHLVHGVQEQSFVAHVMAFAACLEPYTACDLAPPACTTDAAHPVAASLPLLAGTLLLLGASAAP

[4] = Counterscreen for activators of the function of SWI/SNF related, matrix associated, actin dependent regulator of chromatin, subfamily a, member 2 (SMARCA2, BRM): Luminescence-based cell-based high throughput dose response assay to identify non-selective compounds using the VP16 reporter assay.; type: functional
[5] = target: Phosphoethanolamine/phosphocholine phosphatase (Homo sapiens, UniProt Q8TCT1); assay: SAR assay for compounds that inhibit PHOSPHO1. [Related pubchem assays (depositor defined):AID1545, AID1565, AID1574]
Chain of Phosphoethanolamine/phosphocholine phosphatase (Q8TCT1 whole entry): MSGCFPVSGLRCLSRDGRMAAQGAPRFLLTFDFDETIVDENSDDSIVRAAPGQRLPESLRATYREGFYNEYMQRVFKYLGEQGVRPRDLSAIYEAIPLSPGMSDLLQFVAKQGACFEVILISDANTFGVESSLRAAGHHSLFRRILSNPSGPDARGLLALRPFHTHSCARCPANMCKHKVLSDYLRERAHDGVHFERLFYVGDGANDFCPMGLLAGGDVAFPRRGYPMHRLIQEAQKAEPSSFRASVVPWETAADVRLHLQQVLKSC

[6] = target: DNA dC->dU-editing enzyme APOBEC-3A (Homo sapiens, UniProt P31941); assay: Dose Response confirmation of small molecule APOBEC3A DNA Deaminase Inhibitors via a fluorescence-based single-stranded DNA deaminase assay. [Related pubchem assays (depositor defined):AID493011, AID493024]; type: functional
Chain of DNA dC->dU-editing enzyme APOBEC-3A (P31941 whole entry, the tested form may be a part): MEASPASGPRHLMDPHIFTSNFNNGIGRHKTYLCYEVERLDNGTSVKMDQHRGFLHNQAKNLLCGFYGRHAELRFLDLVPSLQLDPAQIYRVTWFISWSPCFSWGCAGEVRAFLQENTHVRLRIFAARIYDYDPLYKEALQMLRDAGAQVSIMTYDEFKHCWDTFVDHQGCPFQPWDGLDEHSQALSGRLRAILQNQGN

[7] = target: Nucleotide-binding oligomerization domain-containing protein 2 (Homo sapiens, UniProt Q9HC29); assay: NOD2 signaling inhibitors, cell-based, luminescence, uHTS, HEK293 (AID 1566); type: functional
Chain of Nucleotide-binding oligomerization domain-containing protein 2 (Q9HC29 whole entry, the tested form may be a part): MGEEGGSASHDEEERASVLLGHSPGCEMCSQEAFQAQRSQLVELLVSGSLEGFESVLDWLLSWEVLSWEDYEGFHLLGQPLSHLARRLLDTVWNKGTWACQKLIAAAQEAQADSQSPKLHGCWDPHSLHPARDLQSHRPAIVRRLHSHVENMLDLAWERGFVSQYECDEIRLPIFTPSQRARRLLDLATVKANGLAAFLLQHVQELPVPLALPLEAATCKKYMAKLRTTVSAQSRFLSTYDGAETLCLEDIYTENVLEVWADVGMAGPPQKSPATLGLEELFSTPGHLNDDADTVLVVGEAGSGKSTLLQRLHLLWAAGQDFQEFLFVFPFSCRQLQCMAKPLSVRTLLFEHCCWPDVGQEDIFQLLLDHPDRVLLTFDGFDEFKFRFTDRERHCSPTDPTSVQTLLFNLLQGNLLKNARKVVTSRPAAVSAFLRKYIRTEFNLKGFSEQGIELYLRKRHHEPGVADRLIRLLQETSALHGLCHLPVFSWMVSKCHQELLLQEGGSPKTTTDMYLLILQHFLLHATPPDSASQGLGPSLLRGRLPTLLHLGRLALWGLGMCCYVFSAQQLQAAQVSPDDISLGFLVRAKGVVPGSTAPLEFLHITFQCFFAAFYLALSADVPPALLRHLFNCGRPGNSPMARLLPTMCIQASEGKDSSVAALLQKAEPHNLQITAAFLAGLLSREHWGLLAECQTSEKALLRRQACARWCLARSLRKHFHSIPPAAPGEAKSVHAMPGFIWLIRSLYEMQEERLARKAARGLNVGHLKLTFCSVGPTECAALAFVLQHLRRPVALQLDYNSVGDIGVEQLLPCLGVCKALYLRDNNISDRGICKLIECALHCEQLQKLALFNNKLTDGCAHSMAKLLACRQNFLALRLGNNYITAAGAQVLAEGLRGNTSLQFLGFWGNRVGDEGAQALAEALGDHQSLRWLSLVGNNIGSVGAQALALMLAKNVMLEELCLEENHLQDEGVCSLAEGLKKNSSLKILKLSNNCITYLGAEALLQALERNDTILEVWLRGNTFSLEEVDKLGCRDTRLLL

[8] = inhibitors of SNCA 5'UTR-driven reporter translation, confirmation, H4 neuroglioma cells, luminescence (AID 1988); type: functional, cell-based
[9] = Luminescence Cell-Based Dose Response HTS to Identify Inhibitors of 5'UTR Stem-Loop Driven Prion Protein mRNA Translation in H4 Neuroglioblastoma Cells. [Related pubchem assays: 1827 (Project Summary), 1813 (Primary HTS)]; type: functional
HEK293 [10] = assay: cells; type: functional, cell-based; conditions: Homo sapiens
[11] = inhibitors of firefly luciferase expression or activity, dose response, H4 neuroglioma cells, luminescence (AID 1990); type: functional, cell-based
HEK293 [12] = assay: cells; type: functional, cell-based; conditions: Homo sapiens; remark: listed apart in the source
HEK293 [13] = assay: NOD1 signaling inhibitors, primary screen, cell-based, luminescence, uHTS (AID 1578); type: functional; conditions: Homo sapiens
[14] = target: DNA dC->dU-editing enzyme APOBEC-3G (Homo sapiens, UniProt Q9HC16); type: functional;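 also: Dose-response counterscreen measuring inhibition of APOBEC3G DNA deaminase activity, run while confirming APOBEC3A inhibitors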
Chain of DNA dC->dU-editing enzyme APOBEC-3G (Q9HC16 whole entry): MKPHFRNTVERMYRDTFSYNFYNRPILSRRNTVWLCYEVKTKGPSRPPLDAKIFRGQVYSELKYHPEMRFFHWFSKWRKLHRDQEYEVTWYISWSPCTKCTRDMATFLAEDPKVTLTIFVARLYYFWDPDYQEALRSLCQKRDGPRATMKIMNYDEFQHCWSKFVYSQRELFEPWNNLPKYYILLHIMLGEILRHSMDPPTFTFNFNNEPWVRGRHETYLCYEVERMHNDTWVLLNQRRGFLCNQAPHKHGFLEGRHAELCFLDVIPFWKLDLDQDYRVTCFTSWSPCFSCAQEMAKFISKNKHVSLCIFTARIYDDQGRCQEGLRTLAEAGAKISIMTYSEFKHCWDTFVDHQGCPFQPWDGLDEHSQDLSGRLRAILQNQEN

HEK293 [15] = assay: NOD2 signaling inhibitors in MDP-stimulated cells, cell-based, uHTS, luminescence (AID 2001); type: functional; conditions: Homo sapiens
HEK293 [16] = assay: cells; type: functional, cell-based; conditions: Homo sapiens; remark: listed apart in the source

## Cc1cccn2c(=O)c3cc(C(=O)NC4CCCC4)c(=N)n(C4CCCCC4)c3nc12
[1]
  EC50: > 91.2 µM (inactive)
[2]
  IC50: 0.469 µM (active)
[3]
  IC50: > 100 µM (inactive)
[4]
  EC50: > 91.2 µM (inactive)

## COc1ccc(-c2nc(N)s[n+]2-c2ccccc2)cc1
[5]
  IC50: 1.25 µM (inactive)

## CCCCCCCn1ccc(=N)cc1
[6]
  IC50: 1.83 µM (active)
[7]
  EC50: 8.15 µM (active)
[8]
  EC50: 14.8 µM (active)
[9]
  EC50: > 120 µM (not active)
HEK293 [10]
  IC50: 5.72 µM (active)
[11]
  EC50: 13 µM (active)
HEK293 [12]
  IC50: > 20 µM (inactive)
HEK293 [13]
  EC50: 6.12 µM (active)
[14]
  IC50: 2.51 µM (active)
HEK293 [15]
  IC50: 6.34 µM (active)
HEK293 [16]
  IC50: 18.1 µM (active)
